Test results published in publication PMC8401042, “Non-Toxic Dimeric Peptides Derived from the Bothropstoxin-I Are Potent SARS-CoV-2 and Papain-like Protease Inhibitors” (Molecules, 2021).
Where two headings read alike, the source gives them in different places. Bridge positions count the residues as written; N and C are the ends. Square brackets hold non-standard residues; d marks the D form. Ends that are not written are not given here. Peptide text beside a SMILES is read from it. I, II: the chains in the order shown.

Experiments:
SARS-CoV-2 PLpro [1] = biological target: T1, SARS-CoV-2 PLpro (Severe acute respiratory syndrome coronavirus 2, UniProt P0DTD1); assay: Microscale thermophoresis (MST) binding assay; details: 100 nM labelled PLpro, peptides 0.015 to 500 µM, 50 mM HEPES pH 7.5, 100 mM NaCl, 2 mM DTT, DMSO 5%; triplicate, Hill fit
SARS-CoV-2 PLpro [2] = biological target: T1, SARS-CoV-2 PLpro; assay: SARS-CoV-2 PLpro FRET enzyme inhibition assay; format: biochemical; details: for inhibition at 10 µM: 10 µM peptide, 27 µM substrate, 37 °C
SARS-CoV-2 = details: 24 h, 100 µM
[3] = biological target: SARS-CoV-2 Papain-like protease (PL^pro) (SARS-CoV-2) (UniProt P0DTD1)
[4] = biological target: SARS-CoV-2 Papain-like protease (PL^pro) (SARS-CoV-2) (UniProt P0DTD1); remark: listed apart in the source
[5] = 70 nM enzyme, 27 µM FRET substrate, 50 mM HEPES pH 7.5, 0.01% Triton X-100, 5 mM DTT, 30 min pre-incubation at 37 °C, Hill fit, two independent experiments, read-out: IC50 against PLpro
[6] = calculated from IC50 values, Figure 3A, read-out: pIC50 (−logIC50), PLpro (converted)

Row | Molecule | Kd (SARS-CoV-2 PLpro [1]) [nM] | IC50 (SARS-CoV-2 PLpro [2]; [5]) [nM] | inhibition at 10 µM (SARS-CoV-2 PLpro [2]; 70 nM enzyme) [%] | SARS-CoV-2 % of inhibition at 100 µM (SARS-CoV-2) [%] | IC50 (SARS-CoV-2 PLpro [2]; [6]) [nM] | IC50 of inhibition of PL^pro activity (cleavage of a FRET peptide substrate) [3] [nM] | percent inhibition of PL^pro activity at 10 µM peptide [4] [%]
1 | CC(C)C[C@H](NC(=O)[C@H](Cc1c[nH]cn1)NC(=O)[C@H](Cc1ccc(O)cc1)NC(=O)[C@H](CCCNC(=N)N)NC(=O)[C@H](Cc1ccc(O)cc1)NC(=O)[C@H](CCCCN)NC(=O)[C@H](C)N)C(=O)N[C@@H](CCCCN)C(=O)N1CCC[C@H]1C(=O)N[C@@H](Cc1ccccc1)C(=O)NCCCC[C@H](NC(=O)[C@H](Cc1ccccc1)NC(=O)[C@@H]1CCCN1C(=O)[C@H](CCCCN)NC(=O)[C@H](CC(C)C)NC(=O)[C@H](Cc1c[nH]cn1)NC(=O)[C@H](Cc1ccc(O)cc1)NC(=O)[C@H](CCCNC(=N)N)NC(=O)[C@H](Cc1ccc(O)cc1)NC(=O)[C@H](CCCCN)NC(=O)[C@H](C)N)C(N)=O [A1] (I: H-AKYRYHLKPFK-NH2 / II: H-AKYRYHLKPF; amide I:11-II:C) | 6000 ± 3000 | 3500 ± 100 | 97 | 4 |  |  | 
2 | CC(C)C[C@H](NC(=O)[C@H](Cc1c[nH]cn1)NC(=O)[C@H](Cc1ccc(O)cc1)NC(=O)[C@H](CCCNC(=N)N)NC(=O)[C@H](Cc1ccc(O)cc1)NC(=O)[C@H](C)NC(=O)[C@@H](N)CCCCN)C(=O)N[C@@H](CCCCN)C(=O)N1CCC[C@H]1C(=O)N[C@@H](Cc1ccccc1)C(=O)NCCCC[C@H](NC(=O)[C@H](Cc1ccccc1)NC(=O)[C@@H]1CCCN1C(=O)[C@H](CCCCN)NC(=O)[C@H](CC(C)C)NC(=O)[C@H](Cc1c[nH]cn1)NC(=O)[C@H](Cc1ccc(O)cc1)NC(=O)[C@H](CCCNC(=N)N)NC(=O)[C@H](Cc1ccc(O)cc1)NC(=O)[C@H](C)NC(=O)[C@@H](N)CCCCN)C(N)=O [A2] (I: H-KAYRYHLKPFK-NH2 / II: H-KAYRYHLKPF; amide I:11-II:C) | 7000 ± 3000 | 2400 ± 30 | 99 | 10 |  |  | 
3 | CC(C)C[C@H](NC(=O)[C@H](Cc1c[nH]cn1)NC(=O)[C@H](Cc1ccc(O)cc1)NC(=O)[C@H](CCCNC(=N)N)NC(=O)[C@H](C)NC(=O)[C@H](CCCCN)NC(=O)[C@@H](N)CCCCN)C(=O)N[C@@H](CCCCN)C(=O)N1CCC[C@H]1C(=O)N[C@@H](Cc1ccccc1)C(=O)NCCCC[C@H](NC(=O)[C@H](Cc1ccccc1)NC(=O)[C@@H]1CCCN1C(=O)[C@H](CCCCN)NC(=O)[C@H](CC(C)C)NC(=O)[C@H](Cc1c[nH]cn1)NC(=O)[C@H](Cc1ccc(O)cc1)NC(=O)[C@H](CCCNC(=N)N)NC(=O)[C@H](C)NC(=O)[C@H](CCCCN)NC(=O)[C@@H](N)CCCCN)C(N)=O [A3] (I: H-KKARYHLKPFK-NH2 / II: H-KKARYHLKPF; amide I:11-II:C) | 6000 ± 4000 | 1000 ± 30 | 95 |  |  |  | 
4 | CC(C)C[C@H](NC(=O)[C@H](Cc1c[nH]cn1)NC(=O)[C@H](Cc1ccc(O)cc1)NC(=O)[C@H](C)NC(=O)[C@H](Cc1ccc(O)cc1)NC(=O)[C@H](CCCCN)NC(=O)[C@@H](N)CCCCN)C(=O)N[C@@H](CCCCN)C(=O)N1CCC[C@H]1C(=O)N[C@@H](Cc1ccccc1)C(=O)NCCCC[C@H](NC(=O)[C@H](Cc1ccccc1)NC(=O)[C@@H]1CCCN1C(=O)[C@H](CCCCN)NC(=O)[C@H](CC(C)C)NC(=O)[C@H](Cc1c[nH]cn1)NC(=O)[C@H](Cc1ccc(O)cc1)NC(=O)[C@H](C)NC(=O)[C@H](Cc1ccc(O)cc1)NC(=O)[C@H](CCCCN)NC(=O)[C@@H](N)CCCCN)C(N)=O [A4] (I: H-KKYAYHLKPFK-NH2 / II: H-KKYAYHLKPF; amide I:11-II:C) | 3000 ± 1000 | 2000 ± 30 | 97 | 10 |  |  | 
5 | CC(C)C[C@H](NC(=O)[C@H](Cc1c[nH]cn1)NC(=O)[C@H](C)NC(=O)[C@H](CCCNC(=N)N)NC(=O)[C@H](Cc1ccc(O)cc1)NC(=O)[C@H](CCCCN)NC(=O)[C@@H](N)CCCCN)C(=O)N[C@@H](CCCCN)C(=O)N1CCC[C@H]1C(=O)N[C@@H](Cc1ccccc1)C(=O)NCCCC[C@H](NC(=O)[C@H](Cc1ccccc1)NC(=O)[C@@H]1CCCN1C(=O)[C@H](CCCCN)NC(=O)[C@H](CC(C)C)NC(=O)[C@H](Cc1c[nH]cn1)NC(=O)[C@H](C)NC(=O)[C@H](CCCNC(=N)N)NC(=O)[C@H](Cc1ccc(O)cc1)NC(=O)[C@H](CCCCN)NC(=O)[C@@H](N)CCCCN)C(N)=O [A5] (I: H-KKYRAHLKPFK-NH2 / II: H-KKYRAHLKPF; amide I:11-II:C) | 3000 ± 2000 | 1900 ± 10 | 95 |  |  |  | 
6 | CC(C)C[C@H](NC(=O)[C@H](C)NC(=O)[C@H](Cc1ccc(O)cc1)NC(=O)[C@H](CCCNC(=N)N)NC(=O)[C@H](Cc1ccc(O)cc1)NC(=O)[C@H](CCCCN)NC(=O)[C@@H](N)CCCCN)C(=O)N[C@@H](CCCCN)C(=O)N1CCC[C@H]1C(=O)N[C@@H](Cc1ccccc1)C(=O)NCCCC[C@H](NC(=O)[C@H](Cc1ccccc1)NC(=O)[C@@H]1CCCN1C(=O)[C@H](CCCCN)NC(=O)[C@H](CC(C)C)NC(=O)[C@H](C)NC(=O)[C@H](Cc1ccc(O)cc1)NC(=O)[C@H](CCCNC(=N)N)NC(=O)[C@H](Cc1ccc(O)cc1)NC(=O)[C@H](CCCCN)NC(=O)[C@@H](N)CCCCN)C(N)=O [A6] (I: H-KKYRYALKPFK-NH2 / II: H-KKYRYALKPF; amide I:11-II:C) | 5000 ± 3000 | 1800 ± 70 | 97 | 22 |  |  | 
7 | CC(C)C[C@@H](NC(=O)[C@@H](Cc1c[nH]cn1)NC(=O)[C@@H](Cc1ccc(O)cc1)NC(=O)[C@@H](CCCNC(=N)N)NC(=O)[C@@H](Cc1ccc(O)cc1)NC(=O)[C@@H](CCCCN)NC(=O)[C@H](N)CCCCN)C(=O)N[C@H](CCCCN)C(=O)N1CCC[C@@H]1C(=O)N[C@H](Cc1ccccc1)C(=O)NCCCC[C@@H](NC(=O)[C@@H](Cc1ccccc1)NC(=O)[C@H]1CCCN1C(=O)[C@@H](CCCCN)NC(=O)[C@@H](CC(C)C)NC(=O)[C@@H](Cc1c[nH]cn1)NC(=O)[C@@H](Cc1ccc(O)cc1)NC(=O)[C@@H](CCCNC(=N)N)NC(=O)[C@@H](Cc1ccc(O)cc1)NC(=O)[C@@H](CCCCN)NC(=O)[C@H](N)CCCCN)C(N)=O [A12] (I: H-[dK][dK][dY][dR][dY][dH][dL][dK][dP][dF][dK]-NH2 / II: H-[dK][dK][dY][dR][dY][dH][dL][dK][dP][dF]; amide I:11-II:C; N-terminus assumed) | 1600 ± 300 |  | 96 | 69 | 1290 |  | 
8 | I: KKYRYHLKPFKK-NH2 / II: KKYRYHLKPFK / III: KKYRYHLKPF / IV: KKYRYHLKPF (amide I:11-IV:C, I:12-II:C, II:11-III:C) [A11] | 1000 ± 200 |  | 98 | 54 | 1410 |  | 
9 | IFGAILPLALGALKNLIK-NH2 [Hylin a1] |  |  |  |  |  | > 10000 | 13
